Data as given in ChEMBL document CHEMBL4715697, “Synthesis and biological activity of benzamide DNA minor groove binders” (2016).

Legend:
Assay type in all cases: functional
SW-620 = assay: Growth inhibition of human SW-620 cells assessed as cell growth at 100 uM incubated for 48 hrs by sulforhodamine B assay relative to control; conditions: read-out: Activity
UACC-62 = assay: Growth inhibition of human UACC-62 cells assessed as cell growth at 0.1 uM incubated for 48 hrs by sulforhodamine B assay relative to control; conditions: read-out: Activity
EKVX [1] = assay: Growth inhibition of human EKVX cells assessed as cell growth at 0.01 uM incubated for 48 hrs by sulforhodamine B assay relative to control; conditions: read-out: Activity
MCF7 [2] = assay: Growth inhibition of human MCF7 cells assessed as cell growth at 0.01 uM incubated for 48 hrs by sulforhodamine B assay relative to control; conditions: read-out: Activity
HCC 2998 [3] = assay: Growth inhibition of human HCC 2998 cells assessed as cell growth at 100 uM incubated for 48 hrs by sulforhodamine B assay relative to control; conditions: read-out: Activity
TK-10 [4] = assay: Growth inhibition of human TK-10 cells incubated for 48 hrs by sulforhodamine B assay
UACC-257 = assay: Growth inhibition of human UACC-257 cells assessed as cell growth at 0.01 uM incubated for 48 hrs by sulforhodamine B assay relative to control; conditions: read-out: Activity
PC-3 = assay: Growth inhibition of human PC-3 cells assessed as cell growth at 100 uM incubated for 48 hrs by sulforhodamine B assay relative to control; conditions: read-out: Activity
MDA-MB-435 = assay: Growth inhibition of human MDA-MB-435 cells assessed as cell growth at 100 uM incubated for 48 hrs by sulforhodamine B assay relative to control; conditions: read-out: Activity
NCI-H522 = assay: Growth inhibition of human NCI-H522 cells assessed as cell growth at 100 uM incubated for 48 hrs by sulforhodamine B assay relative to control; conditions: read-out: Activity
SF-295 = assay: Growth inhibition of human SF-295 cells assessed as cell growth at 100 uM incubated for 48 hrs by sulforhodamine B assay relative to control; conditions: read-out: Activity
NCI-H226 = assay: Growth inhibition of human NCI-H226 cells incubated for 48 hrs by sulforhodamine B assay
ACHN = assay: Growth inhibition of human ACHN cells assessed as cell growth at 0.1 uM incubated for 48 hrs by sulforhodamine B assay relative to control; conditions: read-out: Activity
SN12C [5] = assay: Growth inhibition of human SN12C cells assessed as cell growth at 1 uM incubated for 48 hrs by sulforhodamine B assay relative to control; conditions: read-out: Activity
TK-10 [6] = assay: Growth inhibition of human TK-10 cells assessed as cell growth at 1 uM incubated for 48 hrs by sulforhodamine B assay relative to control; conditions: read-out: Activity
SF-268 = assay: Growth inhibition of human SF-268 cells assessed as cell growth at 0.1 uM incubated for 48 hrs by sulforhodamine B assay relative to control; conditions: read-out: Activity
SN12C [7] = assay: Growth inhibition of human SN12C cells assessed as cell growth at 0.01 uM incubated for 48 hrs by sulforhodamine B assay relative to control; conditions: read-out: Activity
NCI-H460 = assay: Growth inhibition of human NCI-H460 cells assessed as cell growth at 0.01 uM incubated for 48 hrs by sulforhodamine B assay relative to control; conditions: read-out: Activity
T47D = assay: Growth inhibition of human T47D cells assessed as cell growth at 100 uM incubated for 48 hrs by sulforhodamine B assay relative to control; conditions: read-out: Activity
OVCAR-4 = assay: Growth inhibition of human OVCAR-4 cells assessed as cell growth at 100 uM incubated for 48 hrs by sulforhodamine B assay relative to control; conditions: read-out: Activity
LOX IMVI = assay: Growth inhibition of human LOX IMVI cells incubated for 48 hrs by sulforhodamine B assay
Malme-3M [8] = assay: Growth inhibition of human Malme-3M cells incubated for 48 hrs by sulforhodamine B assay
HCC 2998 [9] = assay: Growth inhibition of human HCC 2998 cells assessed as cell growth at 0.1 uM incubated for 48 hrs by sulforhodamine B assay relative to control; conditions: read-out: Activity
NCI-H23 = assay: Growth inhibition of human NCI-H23 cells incubated for 48 hrs by sulforhodamine B assay
Malme-3M [10] = assay: Growth inhibition of human Malme-3M cells assessed as cell growth at 0.1 uM incubated for 48 hrs by sulforhodamine B assay relative to control; conditions: read-out: Activity
EKVX [11] = assay: Growth inhibition of human EKVX cells incubated for 48 hrs by sulforhodamine B assay
NCI-H322M = assay: Growth inhibition of human NCI-H322M cells incubated for 48 hrs by sulforhodamine B assay
HCT-116 = assay: Growth inhibition of human HCT-116 cells assessed as cell growth at 0.1 uM incubated for 48 hrs by sulforhodamine B assay relative to control; conditions: read-out: Activity
MDA-MB-231 = assay: Growth inhibition of human MDA-MB-231 cells assessed as cell growth at 1 uM incubated for 48 hrs by sulforhodamine B assay relative to control; conditions: read-out: Activity
HT-29 [12] = assay: Growth inhibition of human HT-29 cells assessed as cell growth at 0.01 uM incubated for 48 hrs by sulforhodamine B assay relative to control; conditions: read-out: Activity
HT-29 [13] = assay: Growth inhibition of human HT-29 cells incubated for 48 hrs by sulforhodamine B assay
MCF7 [14] = assay: Growth inhibition of human MCF7 cells assessed as cell growth at 0.1 uM incubated for 48 hrs by sulforhodamine B assay relative to control; conditions: read-out: Activity
EKVX [15] = assay: Growth inhibition of human EKVX cells assessed as cell growth at 100 uM incubated for 48 hrs by sulforhodamine B assay relative to control; conditions: read-out: Activity
MDA-MB-468 = assay: Growth inhibition of human MDA-MB-468 cells assessed as cell growth at 0.1 uM incubated for 48 hrs by sulforhodamine B assay relative to control; conditions: read-out: Activity
[16] = read-out: LC50 (the source's name)
[17] = read-out: pLC50 (the source's name) (converted)

`CC(=O)Nc1cc(CO[Si](C)(C)C(C)(C)C)cc(NC(=O)c2ccc(C(=O)Nc3cccc(NC(=O)CCCN(C)C)c3)cc2)c1` showed a growth at 100 µM (SW-620) of 100%, a growth at 0.1 µM (UACC-62) of 94% and a growth at 0.01 µM (EKVX [1]) of 101%. For the same compound, the growth at 0.01 µM (MCF7 [2]) was 94%, the growth at 100 µM (HCC 2998 [3]) was 93% and the GI50 (TK-10 [4]; read-out: GI50) was > 75 µM. For the same compound, the CC50 (TK-10 [4]; [16]) was > 75 µM, the TGI (TK-10 [4]; read-out: TGI) was > 75 µM and the GI50 (TK-10 [4]; read-out: pGI50 (converted)) was > 75.9 µM. For the same compound, the CC50 (TK-10 [4]; [17]) was > 75.9 µM, the TGI (TK-10 [4]; read-out: pTGI) was > 75.9 µM and the growth at 0.01 µM (UACC-257) was 94%. For the same compound, the growth at 100 µM (PC-3) was 93%, the growth at 100 µM (MDA-MB-435) was 88% and the growth at 100 µM (NCI-H522) was 86%. The growth at 100 µM (SF-295) was 88%, the GI50 (NCI-H226; read-out: GI50) was > 75 µM and the CC50 (NCI-H226; [16]) was > 75 µM. For the same compound, the TGI (NCI-H226; read-out: TGI) was > 75 µM, the GI50 (NCI-H226; read-out: pGI50 (converted)) was > 75.9 µM and the CC50 (NCI-H226; [17]) was > 75.9 µM. The TGI (NCI-H226; read-out: pTGI) was > 75.9 µM, the growth at 0.1 µM (ACHN) was 97% and the growth at 1 µM (SN12C [5]) was 100%. It also gave a growth at 1 µM (TK-10 [6]) of 111%, a growth at 0.1 µM (SF-268) of 100% and a growth at 0.01 µM (SN12C [7]) of 96%. For the same compound, the growth at 0.01 µM (NCI-H460) was 102%, the growth at 100 µM (T47D) was 58% and the growth at 100 µM (OVCAR-4) was 78%. For the same compound, the GI50 (LOX IMVI; read-out: GI50) was > 75 µM, the LC50 (concentration giving 50% cell kill) (LOX IMVI; read-out: LC50) was > 75 µM and the TGI (LOX IMVI; read-out: TGI) was > 75 µM. The GI50 (LOX IMVI; read-out: pGI50 (converted)) was > 75.9 µM, the LC50 (concentration giving 50% cell kill) (LOX IMVI; read-out: pLC50 (converted)) was > 75.9 µM and the TGI (LOX IMVI; read-out: pTGI) was > 75.9 µM. The GI50 (Malme-3M [8]; read-out: GI50) was 36.3 µM, the LC50 (concentration killing 50% of cells) (Malme-3M [8]; read-out: LC50) was > 75 µM and the TGI (Malme-3M [8]; read-out: TGI) was > 75 µM. For the same compound, the GI50 (Malme-3M [8]; read-out: pGI50 (converted)) was 36.3 µM, the LC50 (concentration killing 50% of cells) (Malme-3M [8]; read-out: pLC50 (converted)) was > 75.9 µM and the TGI (Malme-3M [8]; read-out: pTGI) was > 75.9 µM. For the same compound, the growth at 0.1 µM (HCC 2998 [9]) was 97%, the GI50 (NCI-H23; read-out: GI50) was > 75 µM and the CC50 (NCI-H23; [16]) was > 75 µM. For the same compound, the TGI (NCI-H23; read-out: TGI) was > 75 µM, the GI50 (NCI-H23; read-out: pGI50 (converted)) was > 75.9 µM and the CC50 (NCI-H23; [17]) was > 75.9 µM. The TGI (NCI-H23; read-out: pTGI) was > 75.9 µM, the growth at 0.1 µM (Malme-3M [10]) was 92% and the GI50 (EKVX [11]; read-out: GI50) was > 75 µM. The LC50 (EKVX [11]; read-out: LC50) was > 75 µM, the TGI (EKVX [11]; read-out: TGI) was > 75 µM and the GI50 (EKVX [11]; read-out: pGI50 (converted)) was > 75.9 µM. For the same compound, the LC50 (EKVX [11]; read-out: pLC50 (converted)) was > 75.9 µM, the TGI (EKVX [11]; read-out: pTGI) was > 75.9 µM and the GI50 (NCI-H322M; read-out: GI50) was > 75 µM. For the same compound, the CC50 (NCI-H322M; [16]) was > 75 µM, the TGI (NCI-H322M; read-out: TGI) was > 75 µM and the GI50 (NCI-H322M; read-out: pGI50 (converted)) was > 75.9 µM. The CC50 (NCI-H322M; [17]) was > 75.9 µM, the TGI (NCI-H322M; read-out: pTGI) was > 75.9 µM and the growth at 0.1 µM (HCT-116) was 99%. The growth at 1 µM (MDA-MB-231) was 106%, the growth at 0.01 µM (HT-29 [12]) was 102% and the GI50 (HT-29 [13]; read-out: GI50) was > 75 µM. For the same compound, the CC50 (HT-29 [13]; [16]) was > 75 µM, the TGI (HT-29 [13]; read-out: TGI) was > 75 µM and the GI50 (HT-29 [13]; read-out: pGI50 (converted)) was > 75.9 µM. The CC50 (HT-29 [13]; [17]) was > 75.9 µM, the TGI (HT-29 [13]; read-out: pTGI) was > 75.9 µM and the growth at 0.1 µM (MCF7 [14]) was 101%. The growth at 100 µM (EKVX [15]) was 82% and the growth at 0.1 µM (MDA-MB-468) was 93%.
